Patent EP0648766A1, “AGENT ACTING ON THE CENTRAL NERVOUS SYSTEM, METHOD FOR ITS PREPARATION AND PHARMACEUTICAL COMPOSITIONS CONTAINING SUCH AGENT” (VITA-INVEST, S.A., priority 1993, dated 1994)
Read-outs that look alike come from different tables or passages of the source.

Columns and labels:
[1] = tested on: rats; assay: Anxiolytic activity, social interaction test (method of File); assay type: in vivo
Excerpt: 2) Anxiolytic activity. Social interaction test.
This consists in placing a pair of rats in an unknown and strongly lit environment.

[2] = tested on: rats; assay: Effect on learning and memory, passive avoidance test; assay type: in vivo
Excerpt: 4) Effect on learning and memory. Passive avoidance test on rats.
Use is made of the method of Chugh and colls., Eur. J. Pharmacol., 203, 121-123 (1991). This consists in placing the rats in a two-compartment (light and dark) box separated by a door which opens and closes as the experimenter wishes; the floor of both cages is constructed using a metal grid electrifiable as desired in terms of current and duration. The animal is conditioned to avoid the dark zone, and the time of latency in the exposures following the one in which the animals receive the electric shock of 0.2 mA and duration of 3 seconds is determined.

[3] = tested on: mouse; assay: Antidepressive activity, desperate behaviour induced by enforced swimming, Porsolt test; assay type: in vivo; conditions: mice
Method: 3) Antidepressive activity. Desperate behaviour induced in mouse by enforced swimming. Porsolt test.
This consists in subjecting the mice to a swimming test by placing them inside transparent cylinders of set dimensions, with water at a temperature of 20-22°C. After a prior detection test, the time the animal takes to adopt an immobile posture is determined, recording the duration of immobility. The average immobility time of the treated groups is compared with that of the control group.

[4] = Acute toxicity; set-up: species or system mice; conditions: mouse, in vivo
Method: The acute toxicity is determined by different vias in mice.

[5] = Anxiolytic activity, two-compartment box (method of Crawley); assay type: in vivo
Excerpt: 1) Anxiolytic activity. Two-compartment box.
The method used is that of Crawley, J.N.; Pharmacol. Biochem. Behav., 15, 695-699 (1981). This consists of a two-compartment box with different lighting, counting the time of stay and number of entries into the light and dark compartments, the number of lifting movements and the number of lines crossed in each of the two compartments, before and after treatment with the products under study.

[6] = ip, mice, i.p., read-out: APPROXIMATE DL₅₀
[7] = 0,01 mg/kg i.p., Excipient 158 ± 15

O=C1CC2(CCCC2)CC(=O)N1CCCCN1CCN(c2ncccn2)CC1 [BUSPIRONA]
SOCIAL INTERACTION TIME (sec ± E.S.) ([1]; 0,25 mg/kg i.p., Excipient 158 ± 15): 287 ± 19 s
SOCIAL INTERACTION TIME (sec ± E.S.) ([1]; 1 mg/kg i.p., Excipient 158 ± 15): 275 ± 14 s

O=Cc1c(N2CCN(Cc3ccc4c(c3)OCO4)CC2)[nH]c2ccccc12 [COMPOUND I, 3-[2-(1-(4'-piperonylpiperazinyl))indolyl]-carboxaldehyde]
2nd LATENCY (10'), average ± E.S. ([2]; 1 mg/kg i.p., N 7, Excipient 5,7 ± 1,5): 3,3 ± 1,4
2nd LATENCY (10'), median ([2]; 1 mg/kg i.p., N 7, Excipient 6): 4
1st LATENCY, average ± E.S. ([2]; 1 mg/kg i.p., N 7, Excipient 7,1 ± 1,6): 2,7 ± 0,7
1st LATENCY, median ([2]; 1 mg/kg i.p., N 7, Excipient 9): 3
3rd LATENCY -(24 h), average ± E.S. ([2]; 1 mg/kg i.p., N 7, Excipient 10,7 ± 4,8): 23,6 ± 9,0
3rd LATENCY -(24 h), median ([2]; 1 mg/kg i.p., N 7, Excipient 21): 42
IMMOBILITY TIME (sec ± E.S.) ([3]; 0,1 mg/kg i.p., Excipient 89,70 ± 21,7): 49,4 ± 17,8 sec
IMMOBILITY TIME (sec ± E.S.) ([3]; 0,5 mg/kg i.p., Excipient 89,70 ± 21,7): 31,60 ± 10,2 sec
IMMOBILITY TIME (sec ± E.S.) ([3]; 1 mg/kg i.p., Excipient 132,53 ± 8,70): 59,80 ± 11,00 sec
IMMOBILITY TIME (sec ± E.S.) ([3]; 10 mg/kg i.p., Excipient 132,53 ± 8,70): 136,60 ± 11,26 sec
LD50 [4, 6]: > 500 mg/kg
LD50 ([4]; po, mice, v.o., read-out: APPROXIMATE DL₅₀): > 500 mg/kg
% TIME IN LIGHT COMPARTMENT (X ± E.S.) ([5]; 2 µg/kg i.p., N 11, same group PRE-EXPOSURE 10,8 ± 3,6): 14,6 ± 7,2%
% TIME IN LIGHT COMPARTMENT (X ± E.S.) ([5]; 4 µg/kg v.o., N 10, same group PRE-EXPOSURE 14,5 ± 4,0): 20,0 ± 5,5%
% TIME IN LIGHT COMPARTMENT (X ± E.S.) ([5]; 8 µg/kg v.o., N 11, same group PRE-EXPOSURE 24,9 ± 6,8): 28,6 ± 8,0%
% TIME IN LIGHT COMPARTMENT (X ± E.S.) ([5]; 20 µg/kg i.p., N 11, same group PRE-EXPOSURE 10,7 ± 3,5): 12,7 ± 6,5%
% TIME IN LIGHT COMPARTMENT (X ± E.S.) ([5]; 50 µg/kg i.p., N 20, same group PRE-EXPOSURE 22,9 ± 3,1): 15,4 ± 4,4%
% TIME IN LIGHT COMPARTMENT (X ± E.S.) ([5]; 100 µg/kg i.p., N 20, same group PRE-EXPOSURE 15,0 ± 2,0): 8,6 ± 3,2%
SOCIAL INTERACTION TIME (sec ± E.S.) ([1]; 0,5 mg/kg i.p., Excipient 158 ± 15): 235 ± 12 s
SOCIAL INTERACTION TIME (sec ± E.S.) ([1]; 2 mg/kg v.o., Excipient i.p 158 ± 15): 262 ± 17 s

CN1C(=O)CN=C(c2ccccc2)c2cc(Cl)ccc21 [DIAZEPAM]
SOCIAL I[…] (sec ± E.S.) ([1]; 2 mg/kg i.p., Excipient 158 ± 15): 257 ± 22 s

CN1C2CCCC1CC(NC(=O)c1nn(C)c3ccccc13)C2 (stereo not shown) [GRANISETRON]
2nd LATENCY (10'), average ± E.S. ([2]; 0,1 mg/kg i.p., N 6, Excipient 5,7 ± 1,5): 8,5 ± 1,8
2nd LATENCY (10'), median ([2]; 0,1 mg/kg i.p., N 6, Excipient 6): 11
1st LATENCY, average ± E.S. ([2]; 0,1 mg/kg i.p., N 6, Excipient 7,1 ± 1,6): 6,3 ± 1,1
1st LATENCY, median ([2]; 0,1 mg/kg i.p., N 6, Excipient 9): 8
3rd LATENCY -(24 h), average ± E.S. ([2]; 0,1 mg/kg i.p., N 6, Excipient 10,7 ± 4,8): 19,0 ± 6,5
3rd LATENCY -(24 h), median ([2]; 0,1 mg/kg i.p., N 6, Excipient 21): 21
LD50 [4, 6]: 89 mg/kg

Cc1nccn1CC1CCc2c(c3ccccc3n2C)C1=O (stereo not shown) [ONDANSETRON]
LD50 ([4]; ip): 7.5 mg/kg
% TIME IN LIGHT COMPARTMENT (X ± E.S.) ([5]; 2µg/kg i.p., N 10, same group PRE-EXPOSURE 16,6 ± 3,3): 12,3 ± 2,7%
% TIME IN LIGHT COMPARTMENT (X ± E.S.) ([5]; 4 µg/kg v.o., N 10, same group PRE-EXPOSURE 21,1 ± 8,0): 18,7 ± 5,1%
SOCIAL INTERACTION TIME (sec ± E.S.) [1, 7]: 247 ± 22 s
SOCIAL INTERACTION TIME (sec ± E.S.) ([1]; 0,05 mg/kg i.p., Excipient 158 ± 15): 219 ± 18 s

CN1[C@@H]2CC[C@H]1C[C@@H](OC(=O)c1c[nH]c3ccccc13)C2 [TROPISETRON]
% TIME IN LIGHT COMPARTMENT (X ± E.S.) ([5]; 10 µg/kg i.p., N 20, same group PRE-EXPOSURE 12,4 ± 3,0): 12,3 ± 3,0%
SOCIAL INTERACTION TIME (sec ± E.S.) [1, 7]: 253 ± 10 s
SOCIAL INTERACTION TIME (sec ± E.S.) ([1]; 0,1 mg/kg i.p., Excipient 158 ± 15): 231 ± 26 s

COc1cc(N)c(Cl)cc1C(=O)NC1CN2CCC1CC2 (stereo not shown) [ZACOPRIDE]
LD50 [4, 6]: 135 mg/kg

CN(C)CCCN1c2ccccc2CCc2ccccc21 [[…]]
[…] (sec ± E.S.) ([3]; 30 mg/kg i.p., Excipient 132,53 ± 8,70): 71,72 ± 9,82 sec
